Data: patent publication US20070093520A1, “Method of treatment of diarrhea-predominant irritable bowel syndrome in a subject” (priority 2005, published 2007)

System: diarrhea-predominant IBS subjects
Type: in vivo, human
Experimental: The study was performed in approximately 150 study centers. Approximately 1600 eligible subjects were to be given cilansetron 2 mg TID. At Visit 1, pre-treatment assessments were conducted. […] Subjects were to return to the study site one month later for Visit 3 (Day 31) for their first interim assessment. […] All subjects who discontinued from the study were to have the same post-study assessments required at Visit 7 performed at their early termination visit. […]
Stool specimens were analyzed at every visit for occult blood. An independent GERB had been established to provide advice on GI AEs during the course of the study.
Adverse events were assessed at Baseline, at each clinic visit, and at the end of the study (Month 12 or the early termination visit). All AEs, which occurred during the study were followed up in accordance with good medical practice until resolved or judged no longer clinically significant, or if a condition was chronic, until fully characterized. Adverse events could occur in the specified follow-up period and, regardless of the interval since the last administration of the study medication, were treated in the same manner as an AE which occurred during the treatment with study medication. Each AE was evaluated for duration, severity, seriousness, and causal relationship to the investigational drug. The action taken and the outcome were also recorded.
Specifically, subjects who were lost to follow-up and had no post-Baseline contact with the site were excluded from the Safety population. The subjects who discontinued from the study due to lost to follow-up were identified based on the information collected on the study termination CRF page.
After the pretreatment assessment at Visit 1 (Days […] to −3), subjects were to return to the study site for a Baseline assessment and start the treatment at Visit 2 (Day 1).
For the by time-interval analyses of disposition, prevalence of AEs, and of markedly abnormal and predefined changes in laboratory values, vital signs, and ECGs, the following interval windows were used:
Adverse events that were already present prior to the first dose of cilansetron study medication but increased in severity afterwards were considered as treatment-emergent.
The 5% cutoff point was based on the incidence within higher level terms.
Subjects were counted at most once for each primary system organ class and preferred term. Serious AEs that resolved prior to receiving study medication or occurred more than 30 days after the last dose of study medication were not included in the incidence tables. A listing of all SAEs is presented; SAEs with onset prior to receiving study medication or more than 30 days after discontinuation of study medication were flagged. The listing presents lower level term and preferred term of the SAE, severity, action taken, outcome, and relationship of the SAE, start and stop date of the SAE, study day of onset of the SAE, age, race, and sex.

[1] = 2 mg, Safety Population, 3008, system organ class
[2] = 2 mg, Safety Population, 3008, under Blood and Lymphatic System Disorders
[3] = 2 mg, Safety Population, 3008, under Congenital, Familial and Genetic Disorders
[4] = 2 mg, Safety Population, 3008, under Ear and Labyrinth Disorders
[5] = 2 mg, Safety Population, 3008, under Endocrine Disorders
[6] = 2 mg, Safety Population, 3008, under Eye Disorders
[7] = 2 mg, Safety Population, 3008, under Hepatobiliary Disorders
[8] = 2 mg, Safety Population, 3008, under Immune System Disorders
[9] = 2 mg, Safety Population, 3008, under Neoplasms Benign, Malignant and Unspecified

Cc1nccn1C[C@H]1CCc2c(c3cccc4c3n2CCC4)C1=O [cilansetron, (R)-(−)-4,5,6,8,9,10-hexahydro-10-[(2-methyl-1H-imidazol-1-yl)methyl]-11H-pyrido-[3,2,1-jk]-carbazol-11-one]
18 (1%) n (%): TEAE incidence: Eye Disorders [1] | TEAE incidence: Inner Ear Signs and Symptoms [4]
10 (<1%) n (%): TEAE incidence: Vertigo [4]
17 (1%) n (%): TEAE incidence: Neoplasms Benign, Malignant and Unspecified (Incl Cysts and Polyps) [1]
22 (2%) n (%): TEAE incidence: Ear and Labyrinth Disorders [1]
7 (<1%) n (%): TEAE incidence: Endocrine Disorders [1] | TEAE incidence: Anaemias NEC [2] | TEAE incidence: Hypersensitivity NOS [8]
12 (<1%) n (%): TEAE incidence: Atopic Disorders [8] | TEAE incidence: Seasonal Allergy [8]
4 (<1%) n (%): TEAE incidence: Leukocytoses NEC [2]
13 (<1%) n (%): TEAE incidence: Blood and Lymphatic System Disorders [1] | TEAE incidence: Hepatobiliary Disorders [1]
5 (<1%) n (%): TEAE incidence: Anaemia NOS [2] | TEAE incidence: Hepatocellular Damage and Hepatitis NEC [7]
51 (4%) n (%): TEAE incidence: Influenza Viral Infections
3 (<1%) n (%): TEAE incidence: Congenital, Familial and Genetic Disorders [1] | TEAE incidence: Social Circumstances [1] | TEAE incidence: Ear Disorders NEC [4] | TEAE incidence: Ear Pain [4] | TEAE incidence: Acquired Hypothyroidism [5] | TEAE incidence: Thyroid Hypofunction Disorders [5] | TEAE incidence: Visual Disorders NEC [6] | TEAE incidence: Visual Disturbance NOS [6] | TEAE incidence: Cholecystitis and Cholelithiasis [7] | TEAE incidence: Hepatitis NOS [7] | TEAE incidence: Allergies to Foods, Food Additives, Drugs and Other Chemicals [8] | TEAE incidence: Drug Hypersensitivity [8]
8 (<1%) n (%): TEAE incidence: Tinnitus [4] | TEAE incidence: Allergic Conditions NEC [8]
23 (2%) n (%): TEAE incidence: Immune System Disorders [1]
32 (2%) n (%): TEAE incidence: Vascular Disorders [1]
1 (<1%) n (%): TEAE incidence: Scrotal Disorders NEC* (2 mg, Safety Population, 3008) | TEAE incidence: Scrotal Swelling* (2 mg, Safety Population, 3008) | TEAE incidence: Vaginal Haemorrhage* (2 mg, Safety Population, 3008) | TEAE incidence: Vulvovaginal Disorders NEC* (2 mg, Safety Population, 3008) | TEAE incidence: Anaemia Deficiencies [2] | TEAE incidence: Anaemia Vitamin B12 Deficiency [2] | TEAE incidence: Anisocytosis [2] | TEAE incidence: Hypochromic Anaemia [2] | TEAE incidence: Neutropenia [2] | TEAE incidence: Neutropenias [2] | TEAE incidence: Normochromic Normocytic Anaemia [2] | TEAE incidence: Poikilocytosis [2] | TEAE incidence: Red Blood Cell Abnormal Findings NEC [2] | TEAE incidence: Secondary Thrombocythaemias [2] | TEAE incidence: Thrombocythaemia [2] | TEAE incidence: Congenital Claw Toe [3] | TEAE incidence: Musculoskeletal and Connective Tissue Disorders of Limbs Congenital [3] | TEAE incidence: Hyperacusia [4] | TEAE incidence: Hyperacusis [4] | TEAE incidence: Inner Ear Disorder NOS [4] | TEAE incidence: Inner Ear Disorders NEC [4] | TEAE incidence: Vertigo Positional [4] | TEAE incidence: Acute and Chronic Thyroiditis [5] | TEAE incidence: Thyroid Neoplasms [5] | TEAE incidence: Thyroid Nodule [5] | TEAE incidence: Thyroiditis NOS [5] | TEAE incidence: Amaurosis Fugax [6] | TEAE incidence: Blindness (Excl Colour Blindness) [6] | TEAE incidence: Cataract Unilateral [6] | TEAE incidence: Cataracts (Excl Congenital) [6] | TEAE incidence: Conjunctival Haemorrhage [6] | TEAE incidence: Conjunctival and Corneal Bleeding and Vascular Disorders [6] | TEAE incidence: Conjunctivitis [6] | TEAE incidence: Dry Eye NOS [6] | TEAE incidence: Eye Irritation [6] | TEAE incidence: Glaucoma NOS [6] | TEAE incidence: Glaucomas (Excl Congenital) [6] | TEAE incidence: Lacrimal Disorders [6] | TEAE incidence: Ocular Sensation Disorders [6] | TEAE incidence: Photophobia [6] | TEAE incidence: Retinal Bleeding and Vascular Disorders (Excl Retinopathy) [6] | TEAE incidence: Retinal Detachment [6] | TEAE incidence: Retinal Structural Change, Deposit and Degeneration [6] | TEAE incidence: Retinal Vascular Disorder NOS [6] | TEAE incidence: Retinitis NOS [6] | TEAE incidence: Vision Abnormal NOS Exacerbated [6] | TEAE incidence: Vision Blurred [6] | TEAE incidence: Biliary Dyskinesia [7] | TEAE incidence: Cholelithiasis [7] | TEAE incidence: Cholestasis and Jaundice [7] | TEAE incidence: Gallbladder Disorders NEC [7] | TEAE incidence: Hepatic Cyst NOS [7] | TEAE incidence: Hepatobiliary Neoplasms Benign [7] | TEAE incidence: Jaundice Cholestatic [7] | TEAE incidence: Benign Ureteric Neoplasm NOS [9] | TEAE incidence: Bladder Neoplasm NOS [9] | TEAE incidence: Breast Cancer NOS* [9] | TEAE incidence: Breast and Nipple Neoplasms Malignant* [9] | TEAE incidence: Cartilage Neoplasms Benign [9] | TEAE incidence: Enchondromatosis [9]
2 (<1%) n (%): TEAE incidence: Pregnancy, Puerperium and Perinatal Conditions [1] | TEAE incidence: Surgical and Medical Procedures [1] | TEAE incidence: Eosinophilia [2] | TEAE incidence: Leukocytosis [2] | TEAE incidence: Leukopenia NOS [2] | TEAE incidence: Leukopenias NEC [2] | TEAE incidence: Neutrophilia [2] | TEAE incidence: Pigmented Naevus [3] | TEAE incidence: Skin and Subcutaneous Tissue Disorders Congenital NEC [3] | TEAE incidence: Goitre [5] | TEAE incidence: Thyroid Disorders NEC [5] | TEAE incidence: Thyroid Hyperfunction Disorders [5] | TEAE incidence: Thyrotoxicosis [5] | TEAE incidence: Eye Pain [6] | TEAE incidence: Eyelid Oedema [6] | TEAE incidence: Ocular Disorders NEC [6] | TEAE incidence: Partial Vision Loss [6] | TEAE incidence: Cholecystitis NOS [7] | TEAE incidence: Hepatic Disorder NOS [7] | TEAE incidence: Hepatic and Hepatobiliary Disorders NEC [7] | TEAE incidence: Liver Fatty [7]
